Measured values taken from patent US12421253B2 (Mirati Therapeutics, Inc., priority 2020, dated 2025).

How the values were obtained:
[1] = target: T1, KRas^WT (Homo sapiens, UniProt P01116); assay: KRas binding assay (TR-FRET displacement of Cy5 labelled tracer)
T1 construct: […]; biotin (biotinylated); purchased Accelegan Inc
Procedure: (§3) The ability of a compound to bind to KRas was measured using a TR-FRET displacement assay. […] After a 60-minute incubation at room temperature, the reaction was measured using a BMG LABTECH CLARIO star Plus via TR-FRET. […] The POC values were fit to a 4-parameter IC50 equation and the IC50 value reported.

[2] = target: T2, KRas^G12A (Homo sapiens, UniProt P01116, G12A); assay: as above
T2 construct: […]; biotin (biotinylated); purchased Accelegan Inc
Procedure: as §3

[3] = target: T3, KRas^G12D (Homo sapiens, UniProt P01116, G12D); assay: as above
T3 construct: […]; biotin (biotinylated); purchased Accelegan Inc
Procedure: as §3

[4] = target: T4, KRas^G12R (Homo sapiens, UniProt P01116, G12R); assay: as above
T4 construct: […]; biotin (biotinylated); purchased Accelegan Inc
Procedure: as §3

[5] = target: T5, KRas^G12S (Homo sapiens, UniProt P01116, G12S); assay: as above
T5 construct: […]; biotin (biotinylated); purchased Accelegan Inc
Procedure: as §3

[6] = target: T6, KRas^G12V (Homo sapiens, UniProt P01116, G12V); assay: as above
T6 construct: […]; biotin (biotinylated); purchased Accelegan Inc
Procedure: as §3

[7] = test system: A549 (G12S) cells, phospho-ERK; assay: Inhibition of KRas-mediated phosphorylation of ERK (phospho-ERK/GAPDH antibody detection, LI-COR); type: cell-based; details: Homo sapiens, 3 hours
Outline: (§1)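 Cells seeded 20,000/well, attached 12-14 h, then compound (0.5% DMSO) for 3 h. Formaldehyde-fixed, methanol-permeabilized cells stained for phospho-ERK (Thr202/Tyr204) and GAPDH; infrared imaging. Ratio expressed as % of DMSO control; IC50 from 4-parameter fit.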

[8] = test system: AsPC-1 (G12D) cells, phospho-ERK; assay: as above; type: cell-based; details: Homo sapiens, ASPC1, 3 hours
Outline: as §1

[9] = test system: HCT116 (G13D) cells, phospho-ERK; assay: as above; type: cell-based; details: Homo sapiens, HCT-116, 3 hours
Outline: as §1

[10] = test system: NCI-H358 (G12C) cells, phospho-ERK; assay: as above; type: cell-based; details: Homo sapiens, 3 hours
Outline: as §1

[11] = test system: NCI-H460 (Q61H) cells, phospho-ERK; assay: as above; type: cell-based; details: Homo sapiens, 3 hours
Outline: as §1

[12] = test system: NCI-H727 (G12V) cells, phospho-ERK; assay: as above; type: cell-based; details: Homo sapiens, 3 hours
Outline: as §1

[13] = test system: PSN-1 (G12R) cells, phospho-ERK; assay: as above; type: cell-based; details: Homo sapiens, PSN1, 3 hours
Outline: as §1

[14] = target: KRas^G12C (Homo sapiens, UniProt P01116, G12C); assay: biochemical
Procedure: as §3

[15] = target: KRas^G13D (Homo sapiens, UniProt P01116, G13D); assay: biochemical
Procedure: as §3

[16] = target: KRas^Q61H (Homo sapiens, UniProt P01116, Q61H); assay: biochemical
Procedure: as §3

[17] = test system: A549 cells, pERK; assay: Inhibition of KRas phosphorylation of ERK (Cisbio HTRF Advanced pERK assay); type: cell-based; details: Homo sapiens, 3 hrs, read-out: Inhibition (HTRF IC50 nM) of KRas-mediated Phosphorylation of ERK, A549
Outline: (§2)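 Cells were seeded overnight in RPMI with 10% FBS, then treated for 3 h at 37 °C with 10-dose, 3-fold compound titrations from 10 uM (0.8% DMSO final). After lysis at 4 °C, phospho-ERK was quantified by HTRF using d2- and cryptate-labelled antibodies; 0.2 uM trametinib served as minimum control.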

[18] = test system: ASPC1 cells, pERK; assay: as above; type: cell-based; details: Homo sapiens, ASPC1, 3 h, AsPC-1 cells, read-out: Inhibition (HTRF IC50 nM) of KRas-mediated Phosphorylation of ERK, AsPC-1
Outline: as §2

[19] = test system: H460 cells, pERK; assay: as above; type: cell-based; details: Homo sapiens, NCI-H460, 3 hrs, read-out: Inhibition (HTRF IC50 nM) of KRas-mediated Phosphorylation of ERK, H460
Outline: as §2

[20] = test system: H727 cells, pERK; assay: as above; type: cell-based; details: Homo sapiens, NCI-H727, 3 h, read-out: Inhibition (HTRF IC50 nM) of KRas-mediated Phosphorylation of ERK, H727
Outline: as §2

[21] = test system: HCT116 cells, pERK; assay: as above; type: cell-based; details: Homo sapiens, HCT-116, 3 hrs, read-out: Inhibition (HTRF IC50 nM) of KRas-mediated Phosphorylation of ERK, HCT116
Outline: as §2

Sequence of KRas^G13D (P01116 1-169 isoform P01116-2 G13D): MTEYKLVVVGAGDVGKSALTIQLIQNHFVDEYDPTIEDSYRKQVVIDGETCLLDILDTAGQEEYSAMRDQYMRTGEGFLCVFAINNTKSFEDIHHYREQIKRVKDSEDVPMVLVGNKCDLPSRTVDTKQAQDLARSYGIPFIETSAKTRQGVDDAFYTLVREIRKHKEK
T6 sequence (P01116 1-169 isoform P01116-2 G12V): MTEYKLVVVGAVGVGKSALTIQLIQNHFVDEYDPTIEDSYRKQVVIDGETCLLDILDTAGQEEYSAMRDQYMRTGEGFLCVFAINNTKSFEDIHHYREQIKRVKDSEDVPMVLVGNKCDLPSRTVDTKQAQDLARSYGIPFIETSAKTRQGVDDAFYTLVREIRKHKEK
T1 sequence (P01116 1-169 isoform P01116-2): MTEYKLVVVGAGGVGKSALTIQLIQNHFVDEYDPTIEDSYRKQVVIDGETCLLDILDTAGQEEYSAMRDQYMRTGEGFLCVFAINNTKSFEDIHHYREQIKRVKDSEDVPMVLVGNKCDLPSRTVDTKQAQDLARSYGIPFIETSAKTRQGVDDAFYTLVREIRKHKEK
T5 sequence (P01116 1-169 isoform P01116-2 G12S): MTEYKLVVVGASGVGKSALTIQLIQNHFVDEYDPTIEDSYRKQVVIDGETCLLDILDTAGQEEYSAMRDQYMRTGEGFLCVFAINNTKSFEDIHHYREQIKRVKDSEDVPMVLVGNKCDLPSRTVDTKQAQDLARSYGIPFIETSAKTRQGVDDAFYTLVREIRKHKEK
Sequence of KRas^G12C (P01116 1-169 isoform P01116-2 G12C): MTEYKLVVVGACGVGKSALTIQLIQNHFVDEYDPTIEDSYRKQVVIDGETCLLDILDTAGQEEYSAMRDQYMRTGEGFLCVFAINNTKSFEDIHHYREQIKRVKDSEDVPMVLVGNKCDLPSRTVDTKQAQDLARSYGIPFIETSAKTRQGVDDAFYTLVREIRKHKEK
Sequence of KRas^Q61H (P01116 1-169 isoform P01116-2 Q61H): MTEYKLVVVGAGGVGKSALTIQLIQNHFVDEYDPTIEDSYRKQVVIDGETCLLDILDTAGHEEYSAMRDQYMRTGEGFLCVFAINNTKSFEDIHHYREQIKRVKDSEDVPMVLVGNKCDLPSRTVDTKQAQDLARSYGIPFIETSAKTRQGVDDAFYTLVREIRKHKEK
T3 sequence (P01116 1-169 isoform P01116-2 G12D): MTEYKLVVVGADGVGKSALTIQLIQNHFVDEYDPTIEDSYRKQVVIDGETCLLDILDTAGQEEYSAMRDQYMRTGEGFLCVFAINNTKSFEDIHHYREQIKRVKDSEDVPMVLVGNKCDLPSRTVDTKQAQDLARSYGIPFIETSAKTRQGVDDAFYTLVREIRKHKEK
T4 sequence (P01116 1-169 isoform P01116-2 G12R): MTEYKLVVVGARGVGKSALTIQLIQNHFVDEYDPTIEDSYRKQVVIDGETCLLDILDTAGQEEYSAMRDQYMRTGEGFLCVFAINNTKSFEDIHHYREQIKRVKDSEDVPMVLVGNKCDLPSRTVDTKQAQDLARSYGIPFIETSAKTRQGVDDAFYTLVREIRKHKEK
T2 sequence (P01116 1-169 isoform P01116-2 G12A): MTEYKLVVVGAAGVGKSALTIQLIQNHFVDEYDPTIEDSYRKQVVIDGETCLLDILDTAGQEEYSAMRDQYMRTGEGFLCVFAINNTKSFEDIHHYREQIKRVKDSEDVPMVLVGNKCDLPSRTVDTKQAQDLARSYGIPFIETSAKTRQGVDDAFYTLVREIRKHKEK

SMILES	IC50 [1]	IC50 [2]	IC50 [3]	IC50 [4]	IC50 [5]	IC50 [6]	IC50 [7]	IC50 [8]	IC50 [9]	IC50 [10]	IC50 [11]	IC50 [12]	IC50 [13]	IC50 [14]	IC50 [15]	IC50 [16]	other results
CCc1c(F)ccc2cc(O)cc(N3CCc4c(nc(OCC56CCCN5CCC6)nc4N4CCC[C@@](C)(O)C4)C3)c12 [Example 1, (R)-1-(7-(8-ethyl-7-fluoro-3-hydroxynaphthalen-1-yl)-2-((hexahydro-1H-pyrrolizin-7a-yl)methoxy)-5,6,7,8-tetrahydropyrido[3,4-d]pyrimidin-4-yl)-3-methylpiperidin-3-ol]	≤ 2 nM	≤ 2 nM	≤ 2 nM	≤ 2 nM	≤ 2 nM	≤ 2 nM	1020 nM	398 nM	601 nM	236 nM	357 nM	1260 nM	1400 nM	≤ 2 nM	≤ 2 nM	≤ 2 nM	–
CCc1c(F)ccc2cc(O)cc(N3CCc4c(nc(OC[C@@]56CCCN5C[C@H](F)C6)nc4N4CCC[C@@](C)(O)C4)C3)c12 [Example 2, (R)-1-(7-(8-ethyl-7-fluoro-3-hydroxynaphthalen-1-yl)-2-(((2R,7aS)-2-fluorohexahydro-1H-pyrrolizin-7a-yl)methoxy)-5,6,7,8-tetrahydropyrido[3,4-d]pyrimidin-4-yl)-3-methylpiperidin-3-ol]	≤ 2 nM	≤ 2 nM	≤ 2 nM	≤ 2 nM	≤ 2 nM	≤ 2 nM	241 nM	280 nM	863 nM	252 nM	184 nM	798 nM	3530 nM	≤ 2 nM	52 nM	≤ 2 nM	IC50 [17]: 144 nM; IC50 [18]: 29 nM; IC50 [19]: 146 nM; IC50 [20]: 315 nM; IC50 [21]: 426 nM
